The results in this text go back to patent US9145411B2, “Substituted amino-pyrimidine derivatives” (Asana Biosciences, LLC, priority 2012, dated 2015).

For experiment [1], the system named is U87MG cells. In words: XTT assay for cell viability, U87MG cells. The settings on record: Homo sapiens, U-87 MG, read-out: inhibition of U87MG cell proliferation, IC50. In kind it is cell-based. On the procedure: (§1) Using a commercial kit from Sigma Aldrich (Catalog #X34251) and following its protocol, PC3 cells in the log phase of growth were employed and seeded at an optimal density of 1000 cell/well on to 96 well plates and incubated for 24 hours followed by the addition of compounds of formula (I) in serial dilutions. Compound dilutions were made in DMSO. The cells were incubated with the compounds of formula (I) for 96 hours and XTT tetrazolium dye (Sigma, USA) was subsequently added and incubated at 37° C. After the color formation, absorbance was measured at 465 nm in a Spectramax® Gemini spectrophotometer. EC50 values were calculated using a sigmoidal dose response curve fit in GraphPad Prism® v5 software. The tested compounds of formula (I) which caused inhibition of PC3 cell proliferation as determined by this assay protocol are shown in Table 2.
(§2) XTT assays for cell viability were also determined in U87MG, BT474 cells and T47D cells, in a similar manner to the protocol described above. The compounds cause inhibition of U87MG, BT474 and T47D cell proliferation as determined by these assays. For example, the compounds of Examples 3 and 7 caused inhibition of U87MG, BT474 and T47D cell proliferation with IC50 values<600 nM.

Experiment [2] relates to T47D cells. In words: XTT assay for cell viability, T47D cells. The settings on record: Homo sapiens, read-out: inhibition of T47D cell proliferation, IC50. Type of experiment: cell-based. On the procedure: as §1, §2
Experiment [3] relates to BT474 cells. In words: XTT assay for cell viability, BT474 cells. Type of experiment: cell-based. To be noted: Homo sapiens, BT-474, read-out: inhibition of BT474 cell proliferation, IC50. On the procedure:
as §1, §2

The target of experiment [4] is PI3 kinase isoform γ (Homo sapiens, UniProt P48736). In words: PI3 Kinase TR-FRET assay, isoform γ. Type of experiment: biochemical. To be noted: read-out: inhibition of PI3 kinase isoform γ, IC50. As for the experimental part: The ability of compounds of the invention to inhibit PI3K activity was determined in a homogeneous TR-FRET assay using a PI3K assay kit (Millipore, USA; cat #33-016) according to manufacturer's instructions. PI3-Kinases (isoforms α, β, γ and δ) catalyze the phosphorylation of phosphatidylinositol, PIP2 to PIP3 in the presence of ATP and Mg^2+. The PIP3 product is detected by displacement of biotin-PIP3 from an energy transfer complex consisting of Europium labeled anti-GST monoclonal antibody, a GST-tagged PH domain, biotinylated PIP3 and Streptavidin-APC. Excitation of Europium in the complex results in an energy transfer to the APC and a fluorescence emission at 665 nm. The PIP3 product displaces biotin-PIP3 from the complex resulting in a loss of energy transfer and thus a decrease in signal.
To test for the ability of compounds to inhibit the activity of PI3Kα (wild-type), exemplary compounds of formula (I) were dissolved in DMSO and directly distributed into 384-well plates at a volume of 0.5 μL. 14.5 μL of P110/P85α/PIP2 mixture in buffer (obtained from the Millipore kit) containing MgCl2 (40 mM) and DTT (5 mM) was added to compound wells and incubated for 60 minutes at room temperature. P110/P85α was expressed in SF9 insect cells and purified nickel column extraction. Five ng of wild-type P110/P85α was used in the assay. The kinase reaction was started by the addition of ATP. The assay concentrations of both PIP2 and ATP were 10 μM. The reaction mixture was incubated for 30 minutes at room temperature and was terminated by the addition of stop mix and detection mix. Fluorescence was measured at 615 and 665 nm upon excitation at 340 nm in a Victor™ V5 fluorometer (Perkin Elmer, USA). The fluorescence emission ratio at 665 to 615 nm, proportional to the kinase activity, was plotted against the compound concentration to generate dose-response curves and IC50 values were determined using GraphPad Prism® 5 software.
The activity of PI3 kinase isoforms β, γ and δ were assayed in a similar manner to the assay protocol described above for PI3Kα, by substituting the appropriate p110/p85 isoform for the p110α/p85α. Compounds of formula (I) caused inhibition of PI3 kinase isoforms β, γ and δ as determined by these assays. For example, the compounds of Examples 3 and 21 each caused inhibition of PI3 kinase isoform β with IC50 values<500 nM. The compounds of Examples 3, 7, 21, 47, 48 and 49 each caused inhibition of PI3 kinase isoform γ with IC50 values<500 nM. The compounds of Example 3, 7, 47, 48, and 49 caused inhibition of PI3 kinase isoform δ with IC50 values<1 μM.

The test system of experiment [5] is pAKT (T308). In words: In vivo PK/PD study, U87MG tumor xenograft, pAKT (T308). The settings on record: U87MG tumor-bearing xenograft mice, 50 mg/kg po. As for the experimental part: PC3 cells are cultured at 37° C. in a 5% CO2 incubator using Hams F12 K medium. Ten million (10^7) cells are injected subcutaneously to the right flank region of athymic male mice (Harlan, age: 6-7 weeks, weight: about 20 g). Tumor bearing mice are randomized when the tumor volume reaches about 250 mm^3 and three mice are used per each time point. Test compounds of formula (I) are typically formulated in 40% HPCD in 1×PBS, pH 7.4 or in 10% Ethanol/40% Solutol/50% 50 mM aq. methanesulfonic acid and dosed orally at 50 mg/kg single dose (dose volume—10 mL/kg). Plasma and tumor samples are collected at 0 (vehicle control animals), 1, 4 and 24 hours post dosing. Blood is drawn (retro orbital) to a tube containing 0.2% EDTA for plasma collection. […] Tumor and plasma drug concentrations are measured for PK analysis using LC-MS.
Snap frozen tumor samples are pulverized in a mortar (Belart) containing liquid nitrogen and tumor powder is stored at −80° C. until analysis. […] The detection for pAKT is based on chemiluminescence and pS6RP is based on absorbance. […]
In vivo pharmacokinetic/pharmacodynamic (PK/PD) studies were carried out in a similar manner using U87MG tumor cells (glioma cancer cell line with a PTEN null mutation) and the corresponding tumor-bearing xenograft mice, and compounds of the invention were determined to be active in this assay. […]

PI3 kinase isoform γ, sequence (P48736 whole entry, the tested form may be a part, canonical isoform): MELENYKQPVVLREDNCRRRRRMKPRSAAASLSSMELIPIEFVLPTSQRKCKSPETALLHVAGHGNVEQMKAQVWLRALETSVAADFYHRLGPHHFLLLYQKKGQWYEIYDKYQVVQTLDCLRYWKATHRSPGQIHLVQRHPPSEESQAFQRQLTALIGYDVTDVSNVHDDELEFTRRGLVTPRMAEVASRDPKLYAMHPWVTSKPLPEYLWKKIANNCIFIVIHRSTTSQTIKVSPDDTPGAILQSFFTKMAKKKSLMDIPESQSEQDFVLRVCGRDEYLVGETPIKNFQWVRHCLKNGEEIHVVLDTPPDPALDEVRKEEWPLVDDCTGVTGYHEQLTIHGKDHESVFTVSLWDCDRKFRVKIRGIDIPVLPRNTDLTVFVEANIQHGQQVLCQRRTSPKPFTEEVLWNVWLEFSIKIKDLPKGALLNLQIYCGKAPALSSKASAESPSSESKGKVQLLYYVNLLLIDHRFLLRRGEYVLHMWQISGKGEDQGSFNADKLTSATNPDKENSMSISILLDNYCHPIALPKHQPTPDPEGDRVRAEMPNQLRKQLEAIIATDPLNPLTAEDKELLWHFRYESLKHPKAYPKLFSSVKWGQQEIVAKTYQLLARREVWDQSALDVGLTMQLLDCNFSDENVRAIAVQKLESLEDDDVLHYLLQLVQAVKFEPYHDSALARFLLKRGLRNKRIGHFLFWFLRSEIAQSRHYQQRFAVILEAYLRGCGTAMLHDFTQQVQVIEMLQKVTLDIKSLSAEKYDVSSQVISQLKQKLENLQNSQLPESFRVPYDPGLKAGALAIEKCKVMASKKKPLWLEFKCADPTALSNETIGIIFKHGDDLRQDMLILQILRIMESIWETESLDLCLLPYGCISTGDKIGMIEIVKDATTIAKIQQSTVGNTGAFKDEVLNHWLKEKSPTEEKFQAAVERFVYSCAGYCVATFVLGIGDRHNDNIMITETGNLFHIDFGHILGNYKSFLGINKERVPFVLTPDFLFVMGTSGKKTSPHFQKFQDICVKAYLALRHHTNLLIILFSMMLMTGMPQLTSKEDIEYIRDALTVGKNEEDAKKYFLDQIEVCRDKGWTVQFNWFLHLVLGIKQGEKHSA

`Nc1ncc(-c2nc(N3CCOCC3)c3ncc(-c4cccc(NC(=O)C5CC5)c4)cc3n2)cn1` [Example 7, N-(3-(2-(2-Aminopyrimidin-5-yl)-4-morpholinopyrido[3,2-d]pyrimidin-7-yl)-phenyl)cyclopropanecarboxamide]: the IC50 was less than 600 nM in experiment [1], less than 600 nM in experiment [2], less than 600 nM in experiment [3] and less than 500 nM in experiment [4].
`CC(=O)Nc1cccc(-c2cnc3c(N4CCOCC4)nc(-c4cnc(N)nc4)nc3c2)c1` [Example 3, N-(3-(2-(2-Aminopyrimidin-5-yl)-4-morpholinopyrido[3,2-d]pyrimidin-7-yl)-phenyl)acetamide]: the IC50 in experiment [1] is less than 600 nM; in experiment [2], less than 600 nM; in experiment [3], less than 600 nM; in experiment [4], less than 500 nM. Also, the “suppression of pAKT (T308)” value in experiment [5] is listed as “suppression”.
Turning to `N#CC1(C(=O)Nc2cccc(-c3cnc4c(N5CCOCC5)nc(-c5cnc(N)nc5)nc4c3)c2)CC1` [Example 61, N-(3-(2-(2-amino-pyrimidin-5-yl)-4-morpholinopyrido[3,2-d]pyrimidin-7-yl)phenyl)-1-cyanocyclopropane-carboxamide], the “suppression of pAKT (T308)” value in experiment [5] is “suppression”.
